Data published in the NIST ThermoML archive (doi:10.1021/je060084c).

Assays:
[1] = 298.15 K; for mass density: 101.33 kPa, Liquid
[2] = refractive index (Na D-line) (dimensionless); conditions: 298.15 K; 101.33 kPa; Liquid; Standard Abbe refractometry
[3] = xn = mol fraction of the nth substance listed; conditions: 298.15 K; for mass density: 101 kPa, Liquid
[4] = refractive index (Na D-line) (dimensionless); xn = mol fraction of the nth substance listed; conditions: 298.15 K, 101 kPa, Liquid, Standard Abbe refractometry

CC(=O)O [acetic acid]
Conditions | mass density [kg/m3] | refractive index | surface tension liquid-gas [mN/m]
[1] | 1043.95 | – | 27.08
[2] | – | 1.36969 | –

CC(=O)O [acetic acid] + O
Conditions | mass density, [3] [kg/m3] | refractive index, [4] | surface tension liquid-gas, [3] [mN/m]
x1 = 0.0001 | – | – | 71.79
x1 = 0.0005 | – | – | 71.18
x1 = 0.0007 | 997.41 | 1.33285 | 71.04
x1 = 0.0008 | – | – | 70.84
x1 = 0.0012 | 997.88 | 1.33312 | 70.37
x1 = 0.006 | 998.92 | 1.33422 | 66.17
x1 = 0.0066 | – | – | 65.76
x1 = 0.0119 | 1000.78 | 1.33576 | 62.57
x1 = 0.0138 | – | – | 61.57
x1 = 0.0234 | – | – | 58.26
x1 = 0.0257 | 1004.39 | 1.33874 | 57.45
x1 = 0.0404 | – | – | 53.14
x1 = 0.0516 | 1011.91 | 1.34364 | 50.64
x1 = 0.0746 | – | – | 47.25
x1 = 0.1086 | – | – | 43.43
x1 = 0.1108 | 1031.57 | 1.35281 | 43.39
x1 = 0.1513 | 1040.9 | 1.35708 | 40.12
x1 = 0.1814 | 1046.55 | 1.36009 | 39.24
x1 = 0.2288 | 1052.46 | 1.36386 | 38.17
x1 = 0.3053 | 1058.74 | 1.36818 | 36.5
x1 = 0.4129 | 1063.49 | 1.3723 | 34.8
x1 = 0.516 | 1064.54 | 1.37456 | 33.23
x1 = 0.6068 | 1063.64 | 1.37543 | 31.87
x1 = 0.7035 | 1061.07 | 1.37543 | 30.32
x1 = 0.8067 | 1057 | 1.37459 | 29.32
x1 = 0.9076 | 1051.89 | 1.37257 | 28.42

CCCC(=O)O [butanoic acid]
Conditions | mass density [kg/m3] | refractive index | surface tension liquid-gas [mN/m]
[1] | 953.17 | – | 26.19
[2] | – | 1.39599 | –

CCCC(=O)O [butanoic acid] + O
Conditions | mass density, [3] [kg/m3] | refractive index, [4] | surface tension liquid-gas, [3] [mN/m]
x1 = 4e-05 | 997.14 | 1.33256 | 71.12
x1 = 0.0001 | 997.28 | 1.33259 | 70.47
x1 = 0.0006 | 997.35 | 1.33282 | 66.32
x1 = 0.0016 | 997.39 | 1.33325 | 60.32
x1 = 0.0028 | – | – | 55.12
x1 = 0.0056 | 998.24 | 1.33514 | 46.34
x1 = 0.0075 | – | – | 42.12
x1 = 0.0136 | 999.83 | 1.33877 | 35.88
x1 = 0.0201 | 1000.84 | 1.34064 | 31.94
x1 = 0.0299 | 1001.79 | 1.34506 | 29.24
x1 = 0.048 | 1001.61 | 1.35064 | 28.48
x1 = 0.0596 | 1000.55 | 1.35359 | 28.35
x1 = 0.0865 | 998.76 | 1.35959 | 28.23
x1 = 0.1034 | 997.68 | 1.36283 | 28.15
x1 = 0.2033 | 992.5 | 1.37695 | 27.92
x1 = 0.2997 | 987.71 | 1.38524 | 27.73
x1 = 0.381 | 983.12 | 1.38923 | 27.66
x1 = 0.5038 | 977.2 | 1.3933 | 27.56
x1 = 0.5763 | 973.62 | 1.39471 | 27.42
x1 = 0.7036 | 967.47 | 1.39625 | 27.13
x1 = 0.8019 | 962.35 | 1.39667 | 26.9
x1 = 0.9189 | 957.18 | 1.39654 | 26.51

O=CO [formic acid]
Conditions | mass density [kg/m3] | refractive index | surface tension liquid-gas [mN/m]
[1] | 1211.29 | – | 38.17
[2] | – | 1.37459 | –

O=CO [formic acid] + O
Conditions | mass density, [3] [kg/m3] | refractive index, [4] | surface tension liquid-gas, [3] [mN/m]
x1 = 0.0007 | 997.52 | 1.33265 | 71.48
x1 = 0.0015 | 998.02 | 1.33269 | 71.14
x1 = 0.0028 | 998.79 | 1.33271 | 70.65
x1 = 0.0067 | 1001.27 | 1.33343 | 69.45
x1 = 0.0106 | 1003.6 | 1.3344 | 68.59
x1 = 0.0154 | 1006.31 | 1.33496 | 67.53
x1 = 0.0277 | 1013.84 | 1.33633 | 65.46
x1 = 0.0442 | – | – | 63.13
x1 = 0.0538 | 1026.93 | 1.33912 | –
x1 = 0.0755 | – | – | 59.92
x1 = 0.1098 | 1052.76 | 1.34454 | 57.29
x1 = 0.1539 | 1069.49 | 1.34829 | 55.23
x1 = 0.204 | 1086.51 | 1.35223 | 52.74
x1 = 0.3004 | 1114.3 | 1.35863 | 49.18
x1 = 0.4178 | 1141.55 | 1.36478 | 47.25
x1 = 0.5101 | 1158.59 | 1.36885 | 45.73
x1 = 0.6133 | 1174.83 | 1.3722 | 43.41
x1 = 0.7058 | 1187.06 | 1.37444 | 41.42
x1 = 0.8162 | 1198.4 | 1.37543 | 40.12
x1 = 0.8967 | 1204.13 | 1.37543 | 39.13

CCC(=O)O [propanoic acid]
Conditions | mass density [kg/m3] | refractive index | surface tension liquid-gas [mN/m]
[1] | 988.33 | – | 26.15
[2] | – | 1.38484 | –

CCC(=O)O [propanoic acid] + O
Conditions | mass density, [3] [kg/m3] | refractive index, [4] | surface tension liquid-gas, [3] [mN/m]
x1 = 0.0008 | 997.47 | 1.33292 | 68.52
x1 = 0.0016 | 997.64 | 1.33304 | 66.47
x1 = 0.0029 | 998.15 | 1.33367 | 63.66
x1 = 0.0044 | 998.68 | 1.33422 | 60.98
x1 = 0.0064 | 999.29 | 1.33485 | 57.91
x1 = 0.0103 | 1000.6 | 1.33606 | 53.54
x1 = 0.0179 | 1002.71 | 1.3385 | 48.16
x1 = 0.0272 | 1005.51 | 1.34145 | 44.12
x1 = 0.047 | 1006.86 | 1.34689 | 38.89
x1 = 0.0618 | 1008.97 | 1.35074 | 36.93
x1 = 0.0989 | 1017.17 | 1.35796 | 34.71
x1 = 0.2016 | 1022.07 | 1.37093 | 32.25
x1 = 0.3008 | 1021.51 | 1.3784 | 31.12
x1 = 0.4003 | 1018.87 | 1.38294 | 30.19
x1 = 0.5009 | 1014.33 | 1.38564 | 29.36
x1 = 0.6039 | 1010.12 | 1.3869 | 28.56
x1 = 0.702 | 1005.03 | 1.38721 | 27.91
x1 = 0.7666 | 1002.83 | 1.38709 | 27.52
x1 = 0.8784 | 996.68 | 1.38599 | 26.92
